Measurements taken from US5474898A, “Octopamine receptor” (The United States of America as represented by the …, priority 1994, dated 1995).
Read-outs that look alike come from different tables or passages of the source.

Key:
[1] = biological target: T1, Drosophila octopamine receptor (Drosophila melanogaster, UniProt P22270); assay: [3H]yohimbine competition displacement binding to membranes of transfected CHO-K1 cells
T1 construct: membranes or whole cells
T1 sequence (P22270 27-601): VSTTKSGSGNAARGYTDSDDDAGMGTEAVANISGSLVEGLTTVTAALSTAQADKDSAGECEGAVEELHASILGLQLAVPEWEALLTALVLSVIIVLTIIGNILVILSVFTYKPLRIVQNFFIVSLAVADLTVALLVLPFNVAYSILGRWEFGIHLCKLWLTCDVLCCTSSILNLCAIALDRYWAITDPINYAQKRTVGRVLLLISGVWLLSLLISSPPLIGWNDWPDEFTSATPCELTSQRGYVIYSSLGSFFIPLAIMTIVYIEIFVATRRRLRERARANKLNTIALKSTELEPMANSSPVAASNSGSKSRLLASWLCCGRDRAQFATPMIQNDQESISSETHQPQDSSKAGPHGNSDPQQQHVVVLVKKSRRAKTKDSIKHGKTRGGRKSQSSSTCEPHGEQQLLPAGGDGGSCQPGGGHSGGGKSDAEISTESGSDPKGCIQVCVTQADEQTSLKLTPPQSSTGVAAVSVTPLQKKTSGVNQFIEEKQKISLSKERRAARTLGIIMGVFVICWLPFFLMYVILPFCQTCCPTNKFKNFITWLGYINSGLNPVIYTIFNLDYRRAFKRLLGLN
Source text: (§1) In a binding assay provided herein, octopamine receptor genes isolated from a specific DNA library are inserted into a plasmid expression vector and used to transfect a Chinese hamster […] cell called CHO-K1 cells. These cells stably integrate the foreign DNA into the genome. Cells that express the insect octopamine receptor and process receptor into the mammalian cell membrane are cloned, expanded and frozen down for further use as membrane preparations in a ligand binding assay. […] After the incubations are terminated, the reaction mixture containing labeled ligand bound to receptor membranes is calculated by measuring label.
(§2) Cell membranes from transfected cells were prepared as previously described (F.-Z. Chung et al., J. Bol. Chem. 263:4052-4055 (1988); C. M. Fraser et al., Proc. Natl. Acad. Sci. USA 85:5478-5482 (1988), C. M. Fraser et al., J. Biol. Chem. 264:11754-11761 (1989), C. M. Fraser et al., Proc. Nat;. Acad. Sci. USA 85:5478-5482 (1989)).
Membrane bound octopamine receptors (20 μg of protein)
concentrations of the indicated agonists (0.1 μM to 2 mM) or
antagonists (10 nM to 200 μM). Incubations were performed at 37.degree
C. for 20 min in a final volume of 250 μl and terminated by filtration
over Whatman GF/C glass fiber filters. Experiments were repeated three
times in triplicate, and the average inhibition constants (± SD) were
caluclated using the LIGAND program of Munson and Rodbard (1980).

[2] = biological target: T1, Drosophila octopamine receptor; assay: Attenuation of forskolin-stimulated cAMP in CHO-K1 cells expressing the Drosophila octopamine receptor; format: cell-based
Method: Transfected cells (3×10^5 cells per dish) were washed once with PBS and incubated in PBS containing 1 mM 3-isobutyl-1-methylxanthine (Sigma) at 37° C. for 20 min. Agonists, at the indicated final concentrations, were added to the cultures along with 10 μM forskolin (Sigma), and cultures were incubated at 37° C. for an additional 20 min. Incubations were terminated by the addition of 6% trichloroacetic acid. Trichloroacetic acid extracts were extracted four times with distilled water-saturated ether, and cMAP concentrations were determined using a cAMP radioimmunoassay kit (New England Nuclear). Data are expressed as percent forskolin-stimulated cAMP production. In the indicated experiments, cell cultures were incubated with Bordetella pertussis islet activating protein (200 ng/ml; list biological lab) at 37° C. for 18 hr in normal culture medium prior to the assay of cAMP. Solid and open squares represent data obtained with octopamine in transfected and control cells, respectively. Solid circles represent data with epinephrine in transfected cells. […] Data represent the average ±SEM of at least three separate experiments performed in duplicate.
(§3) Another aspect of the present invention relates to another drug screening method that identifies new compounds with biogenic amine (agonists) or antagonist activity for biogenic receptors by measuring adenylate cyclase concentrations in transfected CHO-K1 cells expressing octopamine receptors. In one embodiment, potential drugs are tested for their ability to attenuate forskolin-stimulated adenylate cyclase activity. Forskolin is added to control or octopamine receptor transfected CHO-K1 cells that stimulates increased intracellular cAMP levels in transfected cells over basal CHO-K1 levels. In the presence of forskolin, known concentrations of octopamine are added and the attenuation of forskolin stimulated cyclase AMP is calculated. A potential antagonist is determined by the competitive reversal of octopamine mediated attenuation of forskolin stimulated cyclic AMP accumulation when the drug is added to the assayed transfected cells.
Because of the pharmacological and structural similarities of the Drosophila receptor to mammalian […] receptors, the ability of octopamine to attenuate forskolin-stimulated adenylate cyclase activity was tested.

control CHO-K1 cells = assay: Attenuation of forskolin-stimulated cAMP in control CHO-K1 cells; format: cell-based, Chinese hamster; details: 10 μM forskolin (FIG. 4)
Method: (§4) Transfected cells (3×10^5 cells per dish) were washed once with PBS and incubated in PBS containing 1 mM 3-isobutyl-1-methylxanthine (Sigma) at 37° C. for 20 min. Agonists, at the indicated final concentrations, were added to the cultures along with 10 μM forskolin (Sigma), and cultures were incubated at 37° C. for an additional 20 min. Incubations were terminated by the addition of 6% trichloroacetic acid. Trichloroacetic acid extracts were extracted four times with distilled water-saturated ether, and cMAP concentrations were determined using a cAMP radioimmunoassay kit (New England Nuclear). Data are expressed as percent forskolin-stimulated cAMP production. […]
as §3, with “In one embodiment, potential drugs are tested for their ability to attenuate forskolin-stimulated adenylate cyclase activity. Forskolin is added to control or octopamine receptor transfected CHO-K1 cells that stimulates increased intracellular cAMP levels in transfected cells over basal CHO-K1 levels.” left out, “cells. […]” for “cells.”

Octampamine1 = details: locust neuromuscular preparation; data from Evans (1981/1982); cited from earlier work
Octapamine2 = details: locust neuromuscular preparation; data from Evans (1981/1982); cited from earlier work
Octopamine20 = details: locust neuromuscular preparation; data from Evans (1981/1982); cited from earlier work
[3] = biological target: T1, Drosophila octopamine receptor; assay: [3H]yohimbine saturation binding to membranes of transfected CHO-K1 cells
Source text: as §1, §2

[4] = system: control, untransfected CHO-K1 cells; assay: [3H]yohimbine binding to membranes of control, untransfected CHO-K1 cells; parameters: species or system Chinese hamster; details: untransfected CHO-K1 cell membranes
Source text: as §1, §2

adenylate cyclase = assay: Forskolin stimulation of intracellular cAMP in control or transfected CHO-K1 cells; details: Cricetulus griseus, CHO-K1, 20 min, read-out: increase in intracellular cAMP levels over basal values
Method: as §4
as §3, with “In one embodiment, potential drugs are tested for their ability to attenuate forskolin-stimulated adenylate cyclase activity. Forskolin is added to control or octopamine receptor transfected CHO-K1 cells that stimulates increased intracellular cAMP levels in transfected cells over basal CHO-K1 levels.” left out, “cells. […]” for “cells.”

[5] = displacement of 6 nM [3H]yohimbine, 37° C., 20 min, average ± SD, three times in triplicate, read-out: K1

NCC(O)c1ccc(O)cc1 (racemic) [Octopamine(±), Octopamine]
Ki ([1]; read-out: Ki): 29 ± 6 µM | activity at 100 µM ([2]; CHO-K1, 20 min, 100 μM octopamine plus 10 μM forskolin, transfected cells, read-out: cAMP levels, % of those seen with forskolin alone): 46% | ability to attenuate forskolin-stimulated cAMP levels after Bordetella pertussis islet activating protein ([2]; transfected cells pretreated with pertussis toxin 200 ng/ml, 18 hr): abolished | attenuation of forskolin-stimulated cAMP levels ([2]; transfected cells, 10 μM forskolin (FIG. 4)): dose-dependent attenuation of forskolin-stimulated cAMP levels | attenuation of forskolin-stimulated cAMP levels (control CHO-K1 cells): not observed in control cells

CNCC(O)c1ccc(O)cc1 (racemic) [Synephrine(±), Synephrine]
Ki [1]: 10.8 ± 2.5 µM

CN(C)CCCN1c2ccccc2Sc2ccc(Cl)cc21 [Chlorpromazine]
Ki [1]: 0.18 ± 0.06 µM | EC50 (Octampamine1): 0.026 µM

Clc1cccc(Cl)c1N=C1NCCN1 [Clonidine]
Ki [1]: 21 ± 7 µM | EC50 (Octampamine1): 0.00068 µM | EC50 (Octapamine2): 6.4 µM

NCCc1ccc(O)c(O)c1 [Dopamine]
Ki [1, 5]: > 1000 µM | Ki ([1]; read-out: Ki): > 1000 µM

CNC[C@H](O)c1ccc(O)c(O)c1 [Epinephrine(-), Epinephrine]
Ki [1]: 139 ± 41 µM | attenuation of forskolin-stimulated cAMP levels [2]: no effect on forskolin-stimulated cAMP levels | attenuation of forskolin-stimulated cAMP levels (control CHO-K1 cells): no effect on forskolin-stimulated cAMP levels

CC(C)NCC(O)c1ccc(O)c(O)c1 (stereo not drawn) [Isoproterenol(-), Isoproterenol]
Ki [1, 5]: > 1000 µM | Ki ([1]; read-out: Ki): > 1000 µM

CCN(CC)CCNC(=O)c1cc(Cl)c(N)cc1OC [Metoclopramide]
Ki ([1]; read-out: K1): 4.6 ± 1.4 µM | EC50, Octampamine1 (Octampamine1): No effect-10^-6 | EC50 (Octapamine2): 1 µM | EC50 (Octopamine20): 9.5 µM

Cc1ccc(N(CC2=NCCN2)c2cccc(O)c2)cc1 [Phentolamine]
Ki ([1]; read-out: K1): 2.2 ± 0.7 µM | EC50 (Octampamine1): 0.0019 µM

NCCc1c[nH]c2ccc(O)cc12 [Serotonin]
Ki [1]: 75 ± 18 µM

COC(=O)[C@@H]1[C@H]2C[C@H]3c4[nH]c5ccccc5c4CCN3C[C@@H]2CC[C@@H]1O [Yohimbine]
antagonism of octopamine-mediated attenuation of forskolin stimulated cAMP accumulation ([2]; transfected cells, 10 μM yohimbine (FIG. 4)): competitively antagonized | EC50 (Octampamine1): 0.28 µM

COC(=O)[C@@H]1[C@H]2C[C@H]3c4[nH]c5ccccc5c4CCN3C[C@@H]2CC[C@@H]1O [[^3 H]yohimbine]
Kd [3]: 0.0062 µM | Bmax ([3]; transfected cell membranes): 1.75 pmol of receptor per mg of membrane protein | specific radioligand binding [4]: No specific radioligand binding was observed

C=C[C@@]1(C)CC(=O)[C@]2(O)[C@@]3(C)[C@@H](O)CCC(C)(C)[C@@H]3[C@H](O)[C@H](OC(C)=O)[C@@]2(C)O1 [forskolin]
fold induction at 10 µM (adenylate cyclase): 35
